Measurements: paper PMC9492542, “Brain-restricted mTOR inhibition with binary pharmacology” (Nature, 2022)
“And” between values parts separate entries of the source, which are not always exact repeats. Equal entries are not always repeated. Where two headings read alike, the source gives them in different places.

How the values were obtained:
K562 CRISPRi cells = experiment: Cellular dye (TAMRA) retention assay by flow cytometry; format: cell-based
Experimental: Untransduced (no virus or sgRNA^–) and sgRNA expression vector-transduced (sgRNA^+) K562 CRISPRi cells were mixed in a 1:1 ratio, plated in 48-well plates and incubated overnight. Cell mixtures were treated with the indicated TAMRA-linked compounds (300 μl final volume) and incubated for 24 h. Plates were placed over ice and 200 μl of each compound–cell mixture was transferred to a 96-well U-bottom plate. Cells were pelleted at 500g for 5 min and subsequently washed 2× with ice-cold FACS buffer (PBS + 1% BSA + 0.1% NaN3). Cells were resuspended in 200 μl of ice-cold FACS buffer and assessed using an Attune NxT (Thermo Fisher Scientific). Relative uptake of TAMRA-linked compounds was determined by comparing TAMRA fluorescence (561-nm excitation laser and 585/16-nm emission filter) between sgRNA^– and sgRNA^+ cells within each well.

NFAT = NFAT activation assay (Jurkat-Lucia NFAT luciferase reporter, PMA/ionomycin); format: cell-based
Experimental: Jurkat-Lucia NFAT cells were resuspended to 2 × 10^6 cells per ml in fresh growth medium and dispensed in 96-well tissue culture plates (Corning 3904; 180 µl per well). DMSO solutions of test compounds at 100× the test concentrations were added and the cells were incubated for 4 h at 37 °C. A 10× stimulation solution containing phorbol myristate acetate (100 ng ml^–1) and ionomycin (10 µg ml^–1) were added to each well (20 µl per well) except for the negative control wells, which were supplemented with 20 µl medium. Cells were incubated at 37 °C for 12 h. Cells (20 µl per well) were transferred into a white opaque 96-well plate (Corning 3912). TECAN Spark 20M plate reader equipped with an auto-injection system was primed with Lucia luciferase substrate solution and set with the following parameters: 50 µl of injection volume, end-point measurement with a 4-s delay time and 0.1-s integration time. Luciferase activity was measured with the settings above and normalized to DMSO-treated, stimulated cells. Data were plotted in GraphPad Prism 9.0.

human PBMCs = experiment: Proliferation of anti-CD3/anti-CD28 stimulated PBMCs (120 h); format: cell-based
mTOR [1] = experiment: Immunoblot analysis of mTOR signalling (p-S6, p-4EBP1) in MCF7 cells, incl. screen for blocking of rapamycin/RapaLink-1
mTOR [2] = experiment: mTOR signalling in mouse whole brain and skeletal muscle after single i.p. dose (immunoblot, insulin stimulated); format: in vivo; conditions: for p-4EBP1 Brain, fold relative to no insulin, normalized to GAPDH / p-4EBP1 Muscle, fold relative to no insulin, normalized to GAPDH / p-RPS6 Brain, fold relative to no insulin, normalized to GAPDH / p-RPS6 Muscle, fold relative to no insulin, normalized to GAPDH: RL1 1 mg/kg, RB 40 mg/kg, insulin 250 mU, listed as RB
Experimental: Whole brain and skeletal muscle were analyzed by immunoblot.

FKBP12 = target: T1, FKBP12 (Homo sapiens, UniProt P62942); experiment: Competition fluorescence polarization assay with FITC-rapamycin tracer; format: binding
T1 construct: His-tag (HRV 3C cleavable) (cleaved yes); made in house; host or cells: Escherichia coli BL21(DE3)
Experimental: Compound binding affinity was determined using a competition fluorescence polarization assay. […] The assay buffer was 20 mM HEPES pH 7.5 and 0.01% Triton X-100. […] Data were fitted to a three-parameter sigmoidal curve to derive IC50 values. Ki of the compounds were calculated using a tool provided by S. Wang’s laboratory (http://www.umich.edu/~shaomengwanglab/software/calc_ki/index.html). Data were plotted in GraphPad Prism 9.0.

GBM43 = experiment: Orthotopic intracranial GBM43-luciferase patient-derived glioblastoma xenograft; conditions: GBM43-Luc
U87MG = experiment: Orthotopic intracranial U87MG-luciferase glioblastoma xenograft
[3] = U87MG-Luc, day 0, individual mice
[4] = U87MG-Luc, day 5, individual mice
[5] = U87MG-Luc, day 10, individual mice
[6] = U87MG-Luc, day 15, individual mice
[7] = U87MG-Luc, day 20, individual mice

T1 sequence (P62942 whole entry): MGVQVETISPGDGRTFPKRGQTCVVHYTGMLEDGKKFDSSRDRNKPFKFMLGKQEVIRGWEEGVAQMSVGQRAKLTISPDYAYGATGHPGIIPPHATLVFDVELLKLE

CO[C@H]1C[C@@H](C)C/C(C)=C/[C@@H](CCCC(=O)N2CCN(C(=O)c3ccc(C(=O)[O-])c(-c4c5ccc(=[N+](C)C)cc-5oc5cc(N(C)C)ccc45)c3)CC2)C(=O)C[C@H](O)[C@@H](C)[C@@H](/C(C)=C/[C@@H]2CC[C@@H](O)[C@H](OC)C2)OC(=O)[C@@H]2CCCCN2C(=O)C(=O)[C@]2(O)O[C@H]1[C@@H](OC)C[C@H]2C [FK-TAMRA]
Median TAMRA signal, fold change sgRNA+/sgRNA- (K562 CRISPRi cells; FKBP12 sg1, 1 nM compound): 0.94 × | Median TAMRA signal, fold change sgRNA+/sgRNA- (K562 CRISPRi cells; FKBP12 sg1, 100 nM compound): 0.17 × | Median TAMRA signal, fold change sgRNA+/sgRNA- (K562 CRISPRi cells; FKBP12 sg2, 1 nM compound): 0.95 × | Median TAMRA signal, fold change sgRNA+/sgRNA- (K562 CRISPRi cells; FKBP12 sg2, 100 nM compound): 0.23 × | Median TAMRA signal, fold change sgRNA+/sgRNA- (K562 CRISPRi cells; NegCtrl sg, 1 nM compound): 1.00 × | Median TAMRA signal, fold change sgRNA+/sgRNA- (K562 CRISPRi cells; NegCtrl sg, 100 nM compound): 1.00 ×

CO[C@H]1C[C@@H](C)C/C(C)=C/[C@@H](CCCc2cccc[n+]2[O-])C(=O)C[C@H](O)[C@@H](C)[C@@H](/C(C)=C/[C@@H]2CC[C@@H](O)[C@H](OC)C2)OC(=O)[C@@H]2CCCCN2C(=O)C(=O)[C@]2(O)O[C@H]1[C@@H](OC)C[C@H]2C [RapaBlock]
NFAT luciferase activity, normalized to DMSO-treated stimulated cells (NFAT; 0.00512 nM): 93 and 91.3 and 97 | NFAT luciferase activity, normalized to DMSO-treated stimulated cells (NFAT; 0.0256 nM): 97.8 and 104.3 and 98.9 | NFAT luciferase activity, normalized to DMSO-treated stimulated cells (NFAT; 0.128 nM): 95.3 and 89 and 97 | NFAT luciferase activity, normalized to DMSO-treated stimulated cells (NFAT; 0.64 nM): 97.6 and 92.3 and 99.2 | NFAT luciferase activity, normalized to DMSO-treated stimulated cells (NFAT; 16 nM): 100.2 and 101.6 and 105.7 | NFAT luciferase activity, normalized to DMSO-treated stimulated cells (NFAT; 80 nM): 104.1 and 109.3 and 105.3 | NFAT luciferase activity, normalized to DMSO-treated stimulated cells (NFAT; 400 nM): 109.4 and 107.4 and 106.7 | NFAT luciferase activity, normalized to DMSO-treated stimulated cells (NFAT; 2000 nM): 112.3 and 110 and 113.9 | NFAT luciferase activity, normalized to DMSO-treated stimulated cells (NFAT; 10000 nM): 112 and 113.2 and 110.3 | inhibitory activity for calcineurin (NFAT; Fig. 2e): does not exhibit any inhibitory activity for calcineurin | IC50 (NFAT; Homo sapiens, Jurkat NFAT luciferase, PMA + ionomycin): > 10000 nM | shift of RapaLink-1 IC50 for PBMC proliferation by addition of RapaBlock (human PBMCs; 5 days): more than 100 fold | protection of PBMCs from rapamycin-mediated growth inhibition (human PBMCs; compared with protection from RapaLink-1): appeared more effective at protecting PBMCs from rapamycin-mediated growth inhibition | relative proliferation compared to DMSO-treated cells (human PBMCs; constant 10 µM RapaBlock, low RapaLink-1/rapamycin concentrations): ~ 100% | blocking of rapamycin (phospho-S6 signal) (mTOR [1]; MCF7, 100:1 stoichiometry RapaBlock:rapamycin): restoring the phospho-S6 signal to the same level as untreated cells | attenuation of RapaLink-1 effects on mTOR signalling (mTOR [1]; MCF7, 4 h, with 10 nM RapaLink-1): attenuates the pharmacological effects of RapaLink-1 in a dose-dependent manner | effect on mTOR signalling by itself (mTOR [1]; cultured cells, up to 10 µM): does not affect mTOR signalling by itself | p-4EBP1 Brain, fold relative to no insulin, normalized to GAPDH (mTOR [2]; 4h): 1.83 and 2 and 1.39 | p-4EBP1 Muscle, fold relative to no insulin, normalized to GAPDH (mTOR [2]; 4h): 1.7 and 2.09 and 1.93 | p-RPS6 Brain, fold relative to no insulin, normalized to GAPDH (mTOR [2]; 4h): 1.92 and 2.13 and 3 | p-RPS6 Muscle, fold relative to no insulin, normalized to GAPDH (mTOR [2]; 4h): 2.39 and 2.47 and 2.32 | p-4EBP1 Brain, fold relative to no insulin, normalized to GAPDH (mTOR [2]; 24h): 1.46 and 1.83 and 1.26 | p-4EBP1 Muscle, fold relative to no insulin, normalized to GAPDH (mTOR [2]; 24h): 2.04 and 2.08 and 2.19 | p-RPS6 Brain, fold relative to no insulin, normalized to GAPDH (mTOR [2]; 24h): 1.78 and 1.76 and 3.3 | p-RPS6 Muscle, fold relative to no insulin, normalized to GAPDH (mTOR [2]; 24h): 3.51 and 2.13 and 2.07 | tissue-specific protection from RapaLink-1 (in vivo screen) (mTOR [2]; RapaLink-1 1 mg per kg + candidate 40 mg per kg): protected peripheral tissues from RapaLink-1 but allowed potent inhibition of mTOR in the brain | fluorescence polarization (competition, raw) (FKBP12; 0.0976562 nM compound): 114 and 112 | fluorescence polarization (competition, raw) (FKBP12; 0.195312 nM compound): 114 and 112 | fluorescence polarization (competition, raw) (FKBP12; 0.390625 nM compound): 112 and 110 | fluorescence polarization (competition, raw) (FKBP12; 0.78125 nM compound): 110 and 109 | fluorescence polarization (competition, raw) (FKBP12; 1.5625 nM compound): 109 | fluorescence polarization (competition, raw) (FKBP12; 3.125 nM compound): 100 and 104 | fluorescence polarization (competition, raw) (FKBP12; 6.25 nM compound): 86 and 88 | fluorescence polarization (competition, raw) (FKBP12; 12.5 nM compound): 74 | fluorescence polarization (competition, raw) (FKBP12; 25 nM compound): 64 and 62 | fluorescence polarization (competition, raw) (FKBP12; 50 nM compound): 56 and 58 | fluorescence polarization (competition, raw) (FKBP12; 100 nM compound): 46 and 55 | Ki (FKBP12; Extended Data Fig. 4b, n = 3, read-out: Ki(FKBP12)): 1.4 nM | Ki (FKBP12; Fig. 2d, fluorescein-labelled rapamycin tracer, read-out: FKBP12 Ki): 3.1 nM | Kd (FKBP12; measured in-house in a single fluorescence polarization experiment, read-out: Kd3 (RapaBlock binding to FKBP)): 2.5 nM | Kd (FKBP12; recombinant FKBP12, Extended Data Fig. 2, read-out: Kd (FKBP12)): 1.6 nM | Mouse weight (GBM43; day 0, individual mice): 22.5 g and 18.4 g and 23.4 g and 24.1 g and 22.4 g and 24.3 g | Tumor size (measured by bioluminescence) (GBM43; day 0, individual mice): 545000 and 240000 and 88600 and 6780000 and 3240000 and 1560000 | Mouse weight (GBM43; day 4, individual mice): 22.5 g and 20 g and 24 g and 25.1 g and 23.3 g and 25 g | Tumor size (measured by bioluminescence) (GBM43; day 4, individual mice): 550000 and 781000 and 188000 and 20000000 and 920000 and 2990000 | Mouse weight (GBM43; day 7, individual mice): 22 g and 20 g and 25 g (2×) and 23.4 g and 25.8 g | Tumor size (measured by bioluminescence) (GBM43; day 7, individual mice): 42300000 and 19300000 and 2230000 and 1130000000 and 47100000 and 178000000 | Mouse weight (GBM43; day 10, individual mice): 21.7 g and 19.6 g and 24.5 g and 24.8 g (2×) and 22.7 g | Tumor size (measured by bioluminescence) (GBM43; day 10, individual mice): 782000000 and 3210000 and 104000000 and 3810000000 and 1590000000 and 1220000000 | Mouse survival (GBM43; individual mice): 16 days and 17 days and 18 days | tumour growth and survival (U87MG; RapaLink-1 1 mg per kg, RapaBlock 40 mg per kg, i.p. every 5 days): no significant effect on either | Mouse weight (U87MG; [3]): 23.7 g and 18.4 g and 20.5 g and 22.9 g and 23.2 g and 19.4 g | Tumor size (measured by bioluminescence) (U87MG; [3]): 17700000 and 2260000 and 10400000 and 10700000 and 2010000 and 11600000 | Mouse weight (U87MG; [4]): 25.1 g and 20.4 g and 22.3 g and 25.2 g and 24.1 g and 21.1 g | Tumor size (measured by bioluminescence) (U87MG; [4]): 43100000 and 13000000 and 366000 and 28000000 and 11500000 and 3180000 | Mouse weight (U87MG; [5]): 24.6 g and 21.1 g and 22.5 g and 25.3 g and 23.8 g and 21.3 g | Tumor size (measured by bioluminescence) (U87MG; [5]): 1970000 and 19800000 and 27300000 and 73500000 and 25400000 and 8750000 | Mouse weight (U87MG; [6]): 24.4 g and 21.8 g and 23 g (2×) and 25 g and 21.9 g | Tumor size (measured by bioluminescence) (U87MG; [6]): 1140000000 and 112000000 and 171000000 and 820000000 and 161000000 and 1140000 | Mouse weight (U87MG; [7]): 19.5 g and 24.1 g and 23.9 g and 23.1 g | Tumor size (measured by bioluminescence) (U87MG; [7]): 6750000000 and 1500000000 and 1360000000 and 47000000 and 739000000 | Mouse survival (U87MG; U87MG-Luc, individual mice): 25 days and 21 days and 28 days and 23 days

CO[C@H]1C[C@@H]2CC[C@@H](C)[C@@](O)(O2)C(=O)C(=O)N2CCCC[C@H]2C(=O)O[C@H]([C@H](C)C[C@@H]2CC[C@@H](OCCOCc3cn(CCOCCOCCOCCOCCOCCOCCOCCOCCNC(=O)c4ccc(C(=O)[O-])c(-c5c6ccc(=[N+](C)C)cc-6oc6cc(N(C)C)ccc56)c4)nn3)[C@H](OC)C2)CC(=O)[C@H](C)/C=C(\C)[C@@H](O)[C@@H](OC)C(=O)[C@H](C)C[C@H](C)/C=C/C=C/C=C/1C [RapaTAMRA]
cellular retention (median fluorescence intensity) (K562 CRISPRi cells; after extensive washout): tenfold increase in median fluorescence intensity
